System: D. citri
Assay type: in vivo, Diaphorina citri
Details: four-arm olfactometer; for Percentage of individuals that chose each compound, final choice / Percentage of individuals that chose each compound, first choice: 10 μL pure compound in two arms versus clean air in two arms, 5 min observation; for Behavioural response of psyllids to pure compound (in words): 10 μL pure compound versus clean air

In the case of CC1=CC[C@H]2[C@H]3[C@@H]1[C@]2(C)CC[C@H]3C(C)C [α-copaene], the “Percentage of individuals that chose each compound, final choice” value was 33.0%, the “Percentage of individuals that chose each compound, first choice” value was 42.0% and the “Behavioural response of psyllids to pure compound (in words)” value was “higher level of psyllids entering the unscented arm”.
For C=C1CC/C=C(\C)CC[C@@H]2[C@@H]1CC2(C)C [β-caryophyllene], the “Percentage of individuals that chose each compound, final choice” value was 32.0%, the “Percentage of individuals that chose each compound, first choice” value was 42.3% and the “Behavioural response of psyllids to pure compound (in words)” value was “higher level of psyllids entering the unscented arm”.

From US9572349B2 (priority 2009, dated 2017)
